Assay results published in patent US11879895B2, “Intercellular proximity labeling using eGRASP” (Seoul National University R&DB Foundation, priority 2018, dated 2024).
Values belong to the compound of their own block, whether it stands above or below them.

Tests used:
[1] = tested on: DG; experiment: Validation of the Fos-rtTA system with seizures; type: in vivo, mice; conditions: injection of seizure inducer, doxycycline 2 hours before
Protocol: FIGS. 8a to 8c show the results of validation experiments of the Fos-rtTA system with seizures. FIG. 8a is a schematic illustration of the injected AAV, in which the nuclear target mEmerald (mEmerald-Nuc) was regulated by the TRE3G promoter that were regulated by rtTA3G expressed by the Fos promoter, and the nuclear target mCherry regulated by CaMKIIα was used for an expression control.
Doxycycline was injected 2 hours before seizure induction or contextual fear conditioning (CFC) to successfully label activated cells during each event (FIGS. 8A to 8C and FIGS. 9A to 9D). FIGS. 8a to 8c show the results of validation experiments of the Fos-rtTA system with seizures. FIG. 8a is a schematic illustration of the injected AAV, in which the nuclear target mEmerald (mEmerald-Nuc) was regulated by the TRE3G promoter regulated by rtTA3G expressed by the Fos promoter, and the nuclear target mCherry regulated by CaMKIIα was used as an expression control. […] FIGS. 9a to 9d show the results of the verification experiment of the Fos-rtTA system using CFC. […] FIG. 9b is a diagram showing a timetable of actions used in the experiment.

[2] = biological target: T1, Abl SH3 peptide (Homo sapiens, UniProt P00519); experiment: Binding of Abl SH3 binding peptide to Abl SH3 peptide of post-eGRASP; conditions: p32 compared with p30
T1 construct: IgG kappa signal peptide (N)
Protocol: (3) Abl SH3 binding peptide contained in Pre-eGRASP had p30 (APTKPPPLPP) or p32 (SPSYSPPPPP) sequence. p32 was bound more strongly to Abl SH3 peptide of post-eGRASP than p30. Therefore, in this example, a cyan pre-eGRASP designed to be continuously expressed was prepared using p30, and in this example, yellow pre-eGRASP designed to start to be expressed from a specific time point when memory starts to be formed was prepared using p32, thereby matching the balance of cyan fluorescence and yellow fluorescence.

[3] = tested on: HEK293T cells; experiment: GRASP signal at the interface of separately nucleofected HEK293T cells; type: cell-based, human; conditions: pre- and post-constructs transduced into separate HEK293T cells through nucleofection
Text: According to still another embodiment of the present disclosure, the first labeling material or the second labeling material may further comprise a first binding-enhancing site or a second binding-enhancing site, respectively. Specifically, when the first labeling material and the second labeling material are located in close proximity, the first labeling material and the second labeling material are bound to each other to generate a signal. In order to assist the binding, the first labeling material and the second labeling material may further comprise a first binding-enhancing site and a second binding-enhancing site, respectively. The first binding-enhancing site and the second binding-enhancing site may form a binding with each other. Therefore, when the first labeling material and the second labeling material are adjacent to each other, the first binding-enhancing site and the second binding-enhancing site are bound to assist the binding of the first labeling material and the second labeling material.
The upper figure of FIG. 5a is a result when either post-mGRASP or mCherry-binding pre-mGRASP co-expressing mTagBFP2 was transduced into HEK293T cells through nucleofection. […] Peptide p40 (APTYSPPPPP) was bound to a SH3 domain in the post-eGRASP structure to enhance GRASP signals. […]

T1 sequence (P00519 with tags, fused parts or gaps): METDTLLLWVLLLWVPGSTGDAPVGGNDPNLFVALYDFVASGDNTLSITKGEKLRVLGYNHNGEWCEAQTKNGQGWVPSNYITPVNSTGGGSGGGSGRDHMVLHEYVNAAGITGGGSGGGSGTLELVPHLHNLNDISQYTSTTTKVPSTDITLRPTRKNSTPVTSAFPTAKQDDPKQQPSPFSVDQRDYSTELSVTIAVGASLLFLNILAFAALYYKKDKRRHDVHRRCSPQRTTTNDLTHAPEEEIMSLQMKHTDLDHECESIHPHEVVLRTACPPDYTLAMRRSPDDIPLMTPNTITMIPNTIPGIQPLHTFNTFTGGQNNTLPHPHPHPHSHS

Compound: C1CCc2nnnn2CC1 [Pentylenetetrazol]
mEmerald-Nuc signal in DG [1]: strong mEmerald-Nuc signal

binding to Abl SH3 peptide, relative [2]: more strongly
Compound: SPSYSPPPPP ((synthetic) p32)

Compound: S72A: Additional S72A mutation in strands 1-10 of the split GFP; SEQ ID NO: 2
GRASP signal at the interface between cells [3]: GRASP signal increases
